Results reported in PMC6105845, “Nucleotide Prodrug Containing a Nonproteinogenic Amino Acid To Improve Oral Delivery of a Hepatitis C Virus Treatment” (Antimicrobial Agents and Chemotherapy, 2018).

Target: HINT1 (Homo sapiens, UniProt P49773)
Test: P-N bond cleavage of metabolite X by HINT1
Type: biochemical
Experimental: Biochemical assays studying prodrug cleavage have been described previously ([8]). In brief, the cleavages of GS2 by CATA, CES1, CES2, and HINT1 were assessed in vitro. The reaction substrates and products were monitored over time by high-performance liquid chromatography (HPLC).

HINT1, sequence (P49773 whole entry): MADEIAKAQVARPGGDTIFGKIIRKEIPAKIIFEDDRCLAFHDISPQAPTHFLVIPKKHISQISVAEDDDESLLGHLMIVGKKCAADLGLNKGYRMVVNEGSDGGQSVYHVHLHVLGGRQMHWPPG

Row | SMILES | HINT1 specific activity higher than toward metabolite X of GS-6620 [fold] | HINT1 specific activity, P-N bond cleavage [pmol/min/µg]
1 | CC(C)(NP(=O)(O)OC[C@H]1O[C@@](C#N)(c2ccc3c(N)ncnn23)[C@](C)(O)[C@@H]1O)C(=O)O [metabolite X of GS2] | 5.7 | 341
2 | C[C@H](NP(=O)(O)OC[C@H]1O[C@@](C#N)(c2ccc3c(N)ncnn23)[C@](C)(O)[C@@H]1O)C(=O)O [metabolite X of GS-6620] | – | 60
